Test results from US4603125A, “Substituted o-phenylenediamine acridine compounds having antitumor activity” (Development Finance Corporation of New Zealand, priority 1982, dated 1986).
Entries after “also recorded” stand apart in the source; their conditions may differ.

Tests used:
P388 Leukemia = assay: P388 leukemia in vivo (increase in lifespan); conditions: at OD; i.p. tumour, days 1, 5 and 9; >20% statistically significant
Lewis lung carcinoma = Lewis lung carcinoma in vivo (increase in lifespan); conditions: for ILS (percentage increase in lifespan), Lewis lung: i.v. tumour, days 1, 5 and 9, >40% statistically significant
Source text: LL. is the Lewis lung carcinoma.

[1] = Rm from reversed phase partition chromatography (lipophilic-hydrophilic balance)
physchem = conditions: reversed phase partition chromatography
tumour = assay: antitumour activity in in vivo test systems (summary); conditions: compared to unsubstituted AMSA and m-AMSA (for compound 1)
Source text: The compounds of general formula (I) and particularly the examples listed in Tables I and II, have antitumor activity in in vivo test systems, as shown by the data of Tables III and IV.

L1210 leukemia = conditions: earlier work, cited from earlier work

Structure (SMILES) | chromatographic logP [1] | ILSmax (percentage increase in lifespan), P388 (P388 Leukemia) | further results
CNC(=O)c1cccc2c(Nc3ccc(NS(C)(=O)=O)cc3NC)c3ccccc3nc12 [Compound 15] | 0.07 | 82% | 
CNc1cc(NS(C)(=O)=O)ccc1Nc1c2ccccc2nc2cc(I)ccc12 [Compound 8] | 0.35 | 80% | 
COc1ccc2c(Nc3ccc(NS(C)(=O)=O)cc3N(C)C)c3cccc(C)c3nc2c1 [Compound 41] |  |  | chromatographic logP (physchem): 0.44
CNc1cc(NS(C)(=O)=O)ccc1Nc1c2ccc(Br)cc2nc2c(C)cccc12 [Compound 21] | 0.38 |  | 
CNc1ccc2c(Nc3ccc(NS(C)(=O)=O)cc3NC)c3ccccc3nc2c1 [Compound 10] | 0.18 |  | 
CNc1cc(NS(C)(=O)=O)ccc1Nc1c2ccc(Cl)cc2nc2c(C)cccc12 [Compound 19] | 0.4 |  | 
CNc1cc(NS(C)(=O)=O)ccc1Nc1c2ccccc2nc2cc(OC)ccc12 [Compound 4] | 0.21 | 140% | 
CNc1cc(NS(C)(=O)=O)ccc1Nc1c2ccccc2nc2c(C)cccc12 [Compound 12] | 0.19 |  | 
CNc1cc(NP(=O)(OC)OC)ccc1Nc1c2ccccc2nc2ccccc12 [Compound 47] | 0.32 | 118% | 
CNc1cc(NS(C)(=O)=O)ccc1Nc1c2ccccc2nc2cc(Cl)ccc12 [Compound 6] | 0.36 |  | 
CNC(=O)c1cccc2c(Nc3ccc(NS(C)(=O)=O)cc3NC)c3ccc(Cl)cc3nc12 [Compound 23] | 0.23 | 59% | 
CNc1cc(NP(=O)(OC)OC)ccc1Nc1c2ccccc2nc2c(C)cccc12 [Compound 49] | 0.47 | 91% | 
CS(=O)(=O)Nc1ccc(Nc2c3ccccc3nc3cc(Br)ccc23)c(NCCO)c1 [Compound 28] | 0.11 |  | 
CNc1cc(NS(C)(=O)=O)ccc1Nc1c2cccc(OC)c2nc2c(OC)cccc12 [Compound 26] |  | 84% | 
CNc1cc(NS(C)(=O)=O)ccc1Nc1c2ccccc2nc2cc(F)ccc12 [Compound 5] | 0.28 |  | 
CNc1cc(NC(=O)Oc2ccccc2)ccc1Nc1c2ccccc2nc2ccccc12 [Compound 66] | 0.76 | 71% | 
Cc1cccc2c(Nc3ccc(NS(C)(=O)=O)cc3N(C)C)c3ccccc3nc12 [Compound 34] |  |  | chromatographic logP (physchem): 0.36
CNc1cc(NS(C)(=O)=O)ccc1Nc1c2ccccc2nc2c(OC)cccc12 [Compound 13] | 0.12 |  | 
Cc1cccc2c(Nc3ccc(NS(C)(=O)=O)cc3NCCO)c3ccccc3nc12 [Compound 29] | 0.02 |  | 

Structure (SMILES) | chromatographic logP [1] | ILSmax (percentage increase in lifespan), P388 (P388 Leukemia) | further results
CS(=O)(=O)Nc1ccc(Nc2c3ccccc3nc3ccccc23)c(NCCO)c1 [Compound 27] | 0.07 | 89% | 
CNc1cc(NS(C)(=O)=O)ccc1Nc1c2ccccc2nc2ccccc12 [Compound 1] | 0.17 |  | ILS (percentage increase in lifespan), Lewis lung (Lewis lung carcinoma; at OD): 85%; potency and antitumour activity (tumour): increased potency and antitumour activity
CS(=O)(=O)Nc1ccc(Nc2c3ccccc3nc3ccccc23)cc1 [AMSA, 4'-(9-acridinylamino) methanesulphonanilide] |  |  | antitumour activity on L1210 leukemia (L1210 leukemia): good antitumour activity
CNc1cc(NS(C)(=O)=O)ccc1Nc1c2ccc(C)cc2nc2c(OC)cccc12 [Compound 22] | 0.33 |  | 
CNC(=O)c1cccc2c(Nc3ccc(NS(C)(=O)=O)cc3NC)c3cccc(C)c3nc12 [Compound 24] | 0.23 | 94% | 
CN(C)c1cc(NS(C)(=O)=O)ccc1Nc1c2ccccc2nc2ccccc12 [Compound 32] | 0.41 | 212% | cures, Lewis lung (Lewis lung carcinoma; at OD): all cured; ILS (percentage increase in lifespan), Lewis lung (Lewis lung carcinoma; at OD): > 250%
CNc1cc(NS(C)(=O)=O)ccc1Nc1c2ccc(C)cc2nc2c(C)cccc12 [Compound 16] | 0.38 | 92% | 
CNc1cc(NS(C)(=O)=O)ccc1Nc1c2ccccc2nc2cc([N+](=O)[O-])ccc12 [Compound 9] | 0.04 | 70% | 
CNc1cc(NS(C)(=O)=O)ccc1Nc1c2ccccc2nc2cc(NC(=O)OC)ccc12 [Compound 11] | 0.13 |  | 
CNc1cc(NS(C)(=O)=O)ccc1Nc1c2ccccc2nc2cc(C)ccc12 [Compound 3] | 0.39 | 83% | 
CNc1cc(NS(C)(=O)=O)ccc1Nc1c2ccc(F)cc2nc2c(C)cccc12 [Compound 18] | 0.31 |  | 
CNC(=O)c1cccc2c(Nc3ccc(NS(C)(=O)=O)cc3N(C)C)c3cccc(C)c3nc12 [Compound 44] |  |  | chromatographic logP (physchem): 0.4
CNc1cc(NS(C)(=O)=O)ccc1Nc1c2ccc(OC)cc2nc2c(C)cccc12 [Compound 17] | 0.31 |  | 
CNc1cc(NS(C)(=O)=O)ccc1Nc1c2cccc(C)c2nc2c(C)cccc12 [Compound 25] | 0.16 |  | 
CNc1cc(NS(C)(=O)=O)ccc1Nc1c2ccccc2nc2cc(Br)ccc12 [Compound 7] | 0.34 | 94% | 
CS(=O)(=O)Nc1ccc(Nc2c3ccccc3nc3ccccc23)c(NCC(O)CO)c1 (stereo not drawn) [Compound 30] | 0.3 | 84% | 
CNc1cc(NP(=O)(OC)OC)ccc1Nc1c2ccccc2nc2cc(Br)ccc12 [Compound 48] | 0.62 | 77% | 
COc1cc(NS(C)(=O)=O)ccc1Nc1c2ccccc2nc2ccccc12 [m-AMSA, 4'-(9-acridinylamino)methanesulphon-m-anisidide, reference compound] |  | 78% | ILS (percentage increase in lifespan), Lewis lung (Lewis lung carcinoma; at OD): 38%; active, Lewis lung (Lewis lung carcinoma; at the stated dose (OD)): Y/N; Lewis lung activity in words (Lewis lung carcinoma; tumour implanted intravenously): minimal activity; also recorded: strictly inactive; dose potency of 3'-methoxy derivative (L1210 leukemia; vs AMSA): increased dose potency

Continued, in another order:

chromatographic logP [1] | Structure (SMILES) | ILSmax (percentage increase in lifespan), P388 (P388 Leukemia) | further results
0.69 | CNc1cc(NC(=O)OC)ccc1Nc1c2ccc(Br)cc2nc2c(C)cccc12 [Compound 57] | 97% | ILS (percentage increase in lifespan), Lewis lung (Lewis lung carcinoma; at OD): 82%
0.56 | CNc1cc(NC(=O)OC)ccc1Nc1c2ccccc2nc2c(C)cccc12 [Compound 58] |  | ILS (percentage increase in lifespan), Lewis lung (Lewis lung carcinoma; at OD): 48%
0.55 | CNc1cc(NS(=O)(=O)c2ccccc2)ccc1Nc1c2ccccc2nc2ccccc12 [Compound 60] |  | 
0.56 | COC(=O)Nc1ccc(Nc2c3ccccc3nc3ccccc23)c(N(C)C)c1 [Compound 59] | 51% | 
0.1 | CN(CCO)c1cc(NS(C)(=O)=O)ccc1Nc1c2ccccc2nc2ccccc12 [Compound 45] | 100% | 
0.21 | Cc1cccc2c(Nc3ccc(NS(C)(=O)=O)cc3NCC(O)CO)c3ccccc3nc12 (stereo not drawn) [Compound 31] | 83% | 
0.18 | Nc1ccc(S(=O)(=O)Nc2ccc(Nc3c4ccccc4nc4ccccc34)c(NCCO)c2)cc1 [Compound 65] | 50% | 
0.78 | CNc1cc(NC(=O)OC)ccc1Nc1c2ccccc2nc2cc(C)ccc12 [Compound 52] | 86% | 
0.39 | COC(=O)Nc1ccc(Nc2c3ccccc3nc3ccccc23)c(NCCO)c1 [Compound 51] |  | 
0.73 | CNc1cc(NC(=O)OC)ccc1Nc1c2ccccc2nc2cc(Cl)ccc12 [Compound 54] |  | 
0.7 | CNc1cc(NC(=O)OC)ccc1Nc1c2ccccc2nc2cc(Br)ccc12 [Compound 55] |  | 
0.63 | CNc1cc(NC(=O)OC)ccc1Nc1c2ccccc2nc2cc(F)ccc12 [Compound 53] | 110% | 
0.13 | CNc1cc(NS(=O)(=O)c2ccc(N)cc2)ccc1Nc1c2ccccc2nc2c(C)cccc12 [Compound 64] |  | 
0.51 | CNc1cc(NC(=O)OC)ccc1Nc1c2ccccc2nc2ccccc12 [Compound 50] |  | 
0.29 | CNc1cc(NS(=O)(=O)c2ccc(N)cc2)ccc1Nc1c2ccccc2nc2cc(Br)ccc12 [Compound 63] |  | 
0.35 | O=S(=O)(Nc1ccc(Nc2c3ccccc3nc3ccccc23)c(NCCO)c1)c1ccccc1 [Compound 61] | 81% | 
0.67 | CNc1cc(NC(=O)OC)ccc1Nc1c2ccc(Cl)cc2nc2c(C)cccc12 [Compound 56] |  | ILS (percentage increase in lifespan), Lewis lung (Lewis lung carcinoma; at OD): 100%
0.03 | CNc1cc(NS(=O)(=O)c2ccc(N)cc2)ccc1Nc1c2ccccc2nc2ccccc12 [Compound 62] |  | 
